Literature values, collected in US20130243861A1, “PRESS-COATED TABLETS OF PREDNISONE” (CADILA HEALTHCARE LIMITED, priority 2012, published 2013).

- solubility in water: very slightly soluble
SMILES: C[C@]12C=CC(=O)C=C1CC[C@@H]1[C@@H]2C(=O)C[C@@]2(C)[C@H]1CC[C@]2(O)C(=O)CO [Prednisone, pregna-1,4-diene-3,11,20-trione, 17,21-dihydroxy-]
